Reference: patent US20030040644A1, “Synthesis of nitroalcohol diastereomers” (Pharm-Eco Laboratories, Inc., priority 1999, published 2003)
Values joined by “and” are separate entries in the source; they are usually repeats but may differ in a detail not shown here. Equal entries are not always repeated.

Experiment: Solubility of the diastereomers in several solvent systems (mobile phases)
Format: physicochemical
Experimental: In order to have a concentrated sample for loading on the simulated moving bed separation system, a high degree of solubility in the mobile phase to be used for the separation is desirable. Therefore, the solubility of the 1-nitro-3-benzyl-3-(N-ethoxycarbonyl)amino-2-propanol diastereomers in several solvent systems was determined.

% Solubility (mobile phase 10% ethyl acetate/90% methylene chloride): 3.8%
% Solubility (mobile phase 40% water/60% methanol): 1.7%
% Solubility (mobile phase 50% heptane/50% THF): 20%
% Solubility (mobile phase 50% heptane/50% ethyl acetate): 3.81%
% Solubility (mobile phase 50% methanol/50% THF): 78%
% Solubility (mobile phase 60% water/40% acetonitrile): 3.29%
% Solubility (mobile phase 70% heptane/30% THF): 4%
% Solubility (mobile phase 70% heptane/30% ethanol): 20%
% Solubility (mobile phase 70% heptane/30% ethyl acetate): 1.11% and 1.09% and 1.31%
% Solubility (mobile phase 70% heptane/30% isopropanol): 0.36%
% Solubility (mobile phase 80% heptane/20% ethanol): 0.31% and 1.86%
% Solubility (mobile phase 80% toluene/20% THF): 6%
% Solubility (mobile phase 100% methanol): 40%
SMILES: CCOC(=O)NC(Cc1ccccc1)C(O)C[N+](=O)[O-] (single isomer, unassigned) [1-nitro-3-benzyl-3-benzyl-3-(N-ethoxycarbonyl)amino-2-propanol diastereomers, 1-nitro-3-benzyl-3-(N-ethoxycarbonyl)amino-2-propanol]
